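A five-concentration, 48-hour dose response in 96-well plates underlies each endpoint, interpolated linearly between surrounding concentrations. TGI: concentration producing complete growth inhibition.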
Legend:
Experiment in all cases: growth of human tumour cells (NCI), 48 h
[1] = test system: SF-539 CNS
[2] = test system: HCC-2998 colon
[3] = test system: OVCAR-3 ovarian
[4] = test system: NCI-H226 lung
[5] = test system: NCI-H522 lung
[6] = test system: TK-10 renal
[7] = test system: SN12C renal
[8] = test system: MDA-MB-231 breast
[9] = test system: SR leukemia
[10] = test system: CAKI-1 renal
[11] = test system: 786-0 renal
[12] = test system: OVCAR-5 ovarian
[13] = test system: LOX IMVI melanoma
[14] = test system: RPMI-8226 leukemia
[15] = test system: MCF7 breast
[16] = test system: U251 CNS
[17] = test system: UO-31 renal
[18] = test system: MDA-N
[19] = test system: NCI-H23 lung
[20] = test system: DU-145 prostate
[21] = test system: A498 renal
[22] = test system: SK-MEL-2 melanoma
[23] = test system: ACHN renal
[24] = test system: HT29 colon
[25] = test system: CCRF-CEM leukemia
[26] = test system: UACC-62 melanoma
[27] = test system: IGROV1 ovarian
[28] = test system: OVCAR-4 ovarian
[29] = test system: SF-295 CNS
[30] = test system: MALME-3M melanoma
[31] = test system: M14 melanoma
[32] = test system: HS 578T breast
[33] = test system: K-562 leukemia
[34] = test system: SK-OV-3 ovarian
[35] = test system: A549 NSCLC
[36] = test system: SNB-75 CNS
[37] = test system: KM12 colon
[38] = test system: SW-620 colon
[39] = test system: PC-3 prostate
[40] = test system: RXF 393 renal
[41] = test system: T-47D breast
[42] = test system: MOLT-4 leukemia
[43] = test system: OVCAR-8 ovarian
[44] = test system: MDA-MB-435
[45] = test system: SK-MEL-5 melanoma
[46] = test system: SF-268 CNS
[47] = test system: SK-MEL-28 melanoma
[48] = test system: EKVX NSCLC
[49] = test system: NCI-H460 lung
[50] = test system: SNB-19 CNS
[51] = test system: UACC-257 melanoma
[52] = test system: NCI/ADR-RES ovarian
[53] = test system: BT-549 breast
[54] = test system: COLO 205 colon
[55] = test system: HCT-116 colon
[56] = test system: HL-60(TB) leukemia
[57] = test system: HOP-92 NSCLC
[58] = test system: HOP-62 NSCLC
[59] = test system: HCT-15 colon

## C=C(C(=O)OC)N1C(=O)CC(C)C1=O (stereo not drawn)
[1]
  TGI: 36 µM
[2]
  TGI: 31.4 µM
[3]
  TGI: 22.4 µM
[4]
  TGI: 70.3 µM
[5]
  TGI: 5.05 µM
[6]
  TGI: 17.7 µM
[7]
  TGI: 31.1 µM
[8]
  TGI: 34.1 µM
[9]
  TGI: 6.9 µM
[10]
  TGI: 4.38 µM
[11]
  TGI: 23.5 µM
[12]
  TGI: 29.8 µM
[13]
  TGI: 19.1 µM
[14]
  TGI: 12.7 µM
[15]
  TGI: 30.5 µM
[16]
  TGI: 35 µM
[17]
  TGI: 26.1 µM
[18]
  TGI: 28.9 µM
[19]
  TGI: 33.5 µM
[20]
  TGI: 29.8 µM
[21]
  TGI: 36.8 µM
[22]
  TGI: 33.9 µM
[23]
  TGI: 7.51 µM
[24]
  TGI: 25.2 µM
[25]
  TGI: 4.62 µM
[26]
  TGI: 29.6 µM
[27]
  TGI: 31.5 µM
[28]
  TGI: 37.4 µM
[29]
  TGI: > 72 µM
[30]
  TGI: 5 µM
[31]
  TGI: 29.6 µM
[32]
  TGI: 71.2 µM
[33]
  TGI: 12.8 µM
[34]
  TGI: 98.9 µM
[35]
  TGI: 44.2 µM
[36]
  TGI: 36.2 µM
[37]
  TGI: 43.8 µM
[38]
  TGI: 25.5 µM
[39]
  TGI: 30.4 µM
[40]
  TGI: 26.1 µM
[41]
  TGI: 33.1 µM
[42]
  TGI: 10.7 µM
[43]
  TGI: 43.1 µM
[44]
  TGI: 37.2 µM
[45]
  TGI: 32.7 µM
[46]
  TGI: 36.4 µM
[47]
  TGI: 23.1 µM
[48]
  TGI: 29.9 µM
[49]
  TGI: 35.1 µM
[50]
  TGI: 58.8 µM
[51]
  TGI: 25.8 µM
[52]
  TGI: 36 µM
[53]
  TGI: 30.9 µM
[54]
  TGI: 14.3 µM
[55]
  TGI: 19.5 µM
[56]
  TGI: 3.78 µM
[57]
  TGI: 3.98 µM
[58]
  TGI: 35.6 µM
[59]
  TGI: 23.6 µM

## CCC(C)NC(=S)N/N=C(\C)c1nc2ncccc2[nH]1 (stereo not drawn)
[1]
  TGI: 70.5 µM
[2]
  TGI: > 100 µM
[3]
  TGI: > 100 µM
[4]
  TGI: 38.7 µM
[5]
  TGI: > 100 µM
[6]
  TGI: > 100 µM
[7]
  TGI: > 100 µM
[8]
  TGI: > 100 µM
[9]
  TGI: > 85.6 µM
[10]
  TGI: 49.4 µM
[11]
  TGI: > 100 µM
[12]
  TGI: > 84 µM
[13]
  TGI: > 100 µM
[14]
  TGI: > 100 µM
[15]
  TGI: > 100 µM
[16]
  TGI: > 100 µM
[17]
  TGI: 11.6 µM
[18]
  TGI: > 100 µM
[19]
  TGI: > 100 µM
[20]
  TGI: > 100 µM
[21]
  TGI: > 100 µM
[22]
  TGI: > 100 µM
[23]
  TGI: > 100 µM
[24]
  TGI: > 100 µM
[25]
  TGI: 38.7 µM
[26]
  TGI: 79.7 µM
[27]
  TGI: > 100 µM
[28]
  TGI: > 73 µM
[29]
  TGI: > 100 µM
[30]
  TGI: > 100 µM
[31]
  TGI: 62.6 µM
[32]
  TGI: > 100 µM
[33]
  TGI: > 100 µM
[34]
  TGI: > 69.9 µM
[35]
  TGI: > 100 µM
[36]
  TGI: > 100 µM
[37]
  TGI: > 100 µM
[38]
  TGI: > 100 µM
[39]
  TGI: > 100 µM
[40]
  TGI: > 75.6 µM
[41]
  TGI: > 56.7 µM
[42]
  TGI: 46.6 µM
[43]
  TGI: > 100 µM
[44]
  TGI: > 100 µM
[45]
  TGI: 28.6 µM
[46]
  TGI: > 88.4 µM
[47]
  TGI: > 100 µM
[48]
  TGI: > 100 µM
[49]
  TGI: > 100 µM
[50]
  TGI: 97.8 µM
[51]
  TGI: > 100 µM
[52]
  TGI: > 79.5 µM
[53]
  TGI: > 72.3 µM
[54]
  TGI: > 100 µM
[55]
  TGI: > 100 µM
[56]
  TGI: > 100 µM
[57]
  TGI: 44.6 µM
[58]
  TGI: > 100 µM
[59]
  TGI: > 100 µM

Reference: PubChem BioAssay (NCI)
